Experiment: Biodistribution of the nano-emulsion of Example 1.1 in male mice (Tables 15 to 21)
Assay type: in vivo
Conditions: FVB male mouse
Protocol: In the following examples, the radioactivity was counted with the TRiCarb Counter (Ref: Packard, Liquid Scintillation Analyzers; Models 2200CA).
Fluobeam 700 (Fluoptics) is the apparatus with which the whole of the organs from the biodistribution were analyzed in fluorescence as well as the one with which the biodistribution kinetics of the nano-emulsions were established in vivo. This imaging system allows viewing of the fluorescence in spectral bands from 700 to 850 nm for a 650 nm excitation. The apparatus consists of an electric case containing the laser of class 3B, its power supply and an optical head containing the CCD camera. […]

CCCCCCCCCCCCCCCCO[C@H]1CC[C@@]2(C)C(=CC[C@H]3[C@@H]4CC[C@H]([C@H](C)CCCC(C)C)[C@@]4(C)CC[C@@H]32)C1 [[3H]CHE, cholesteryl hexadecylether]
tracer in Adrenal gland (2 h): 10.16 percentage of the dose injected per gram of tissue
tracer in Adrenal gland (4 h): 16.96 percentage of the dose injected per gram of tissue
tracer in Adrenal gland (6 h): 13.399 percentage of the dose injected per gram of tissue
tracer in Adrenal gland (16 h): 32.89 percentage of the dose injected per gram of tissue
tracer in Adrenal gland (24 h): 17.41 percentage of the dose injected per gram of tissue
tracer in Adrenal gland (48 h): 25.12 percentage of the dose injected per gram of tissue
tracer in Adrenal gland (72 h): 46.41 percentage of the dose injected per gram of tissue
tracer in Brain (2 h): 0.35 percentage of the dose injected per gram of tissue
tracer in Brain (4 h): 0.23 percentage of the dose injected per gram of tissue
tracer in Brain (6 h): 0.24 percentage of the dose injected per gram of tissue
tracer in Brain (16 h): 0.18 percentage of the dose injected per gram of tissue
tracer in Brain (24 h): 0.11 percentage of the dose injected per gram of tissue
tracer in Brain (48 h): 0.10 percentage of the dose injected per gram of tissue
tracer in Brain (72 h): 0.11 percentage of the dose injected per gram of tissue
tracer in Fat (2 h): 1.14 percentage of the dose injected per gram of tissue
tracer in Fat (4 h): 0.74 percentage of the dose injected per gram of tissue
tracer in Fat (6 h): 1.234 percentage of the dose injected per gram of tissue
tracer in Fat (16 h): 1.70 percentage of the dose injected per gram of tissue
tracer in Fat (24 h): 0.83 percentage of the dose injected per gram of tissue
tracer in Fat (48 h): 0.94 percentage of the dose injected per gram of tissue
tracer in Fat (72 h): 0.70 percentage of the dose injected per gram of tissue
tracer in Heart (2 h): 9.84 percentage of the dose injected per gram of tissue
tracer in Heart (4 h): 7.57 percentage of the dose injected per gram of tissue
tracer in Heart (6 h): 8.52 percentage of the dose injected per gram of tissue
tracer in Heart (16 h): 8.50 percentage of the dose injected per gram of tissue
tracer in Heart (24 h): 5.76 percentage of the dose injected per gram of tissue
tracer in Heart (48 h): 6.05 percentage of the dose injected per gram of tissue
tracer in Heart (72 h): 7.83 percentage of the dose injected per gram of tissue
tracer in Intestine (2 h): 2.44 percentage of the dose injected per gram of tissue
tracer in Intestine (4 h): 1.98 percentage of the dose injected per gram of tissue
tracer in Intestine (6 h): 2.549 percentage of the dose injected per gram of tissue
tracer in Intestine (16 h): 5.19 percentage of the dose injected per gram of tissue
tracer in Intestine (24 h): 3.41 percentage of the dose injected per gram of tissue
tracer in Intestine (48 h): 3.50 percentage of the dose injected per gram of tissue
tracer in Intestine (72 h): 3.47 percentage of the dose injected per gram of tissue
tracer in Kidney (2 h): 5.29 percentage of the dose injected per gram of tissue
tracer in Kidney (4 h): 3.14 percentage of the dose injected per gram of tissue
tracer in Kidney (6 h): 3.336 percentage of the dose injected per gram of tissue
tracer in Kidney (16 h): 2.40 percentage of the dose injected per gram of tissue
tracer in Kidney (24 h): 1.80 percentage of the dose injected per gram of tissue
tracer in Kidney (48 h): 1.77 percentage of the dose injected per gram of tissue
tracer in Kidney (72 h): 1.82 percentage of the dose injected per gram of tissue
tracer in Liver (2 h): 22.67 percentage of the dose injected per gram of tissue
tracer in Liver (4 h): 17.25 percentage of the dose injected per gram of tissue
tracer in Liver (6 h): 22.609 percentage of the dose injected per gram of tissue
tracer in Liver (16 h): 40.91 percentage of the dose injected per gram of tissue
tracer in Liver (24 h): 30.93 percentage of the dose injected per gram of tissue
tracer in Liver (48 h): 24.53 percentage of the dose injected per gram of tissue
tracer in Liver (72 h): 24.97 percentage of the dose injected per gram of tissue
tracer in Lung (2 h): 5.08 percentage of the dose injected per gram of tissue
tracer in Lung (4 h): 2.98 percentage of the dose injected per gram of tissue
tracer in Lung (6 h): 3.771 percentage of the dose injected per gram of tissue
tracer in Lung (16 h): 5.31 percentage of the dose injected per gram of tissue
tracer in Lung (24 h): 2.88 percentage of the dose injected per gram of tissue
tracer in Lung (48 h): 3.02 percentage of the dose injected per gram of tissue
tracer in Lung (72 h): 3.04 percentage of the dose injected per gram of tissue
tracer in Muscle (2 h): 0.99 percentage of the dose injected per gram of tissue
tracer in Muscle (4 h): 0.56 percentage of the dose injected per gram of tissue
tracer in Muscle (6 h): 0.77 percentage of the dose injected per gram of tissue
tracer in Muscle (16 h): 0.97 percentage of the dose injected per gram of tissue
tracer in Muscle (24 h): 0.38 percentage of the dose injected per gram of tissue
tracer in Muscle (48 h): 0.63 percentage of the dose injected per gram of tissue
tracer in Muscle (72 h): 0.49 percentage of the dose injected per gram of tissue
tracer in Ovary (Ovary, 24 h): 1.71 percentage of the dose injected per gram of tissue
tracer in Pancreas (2 h): 1.64 percentage of the dose injected per gram of tissue
tracer in Pancreas (4 h): 1.50 percentage of the dose injected per gram of tissue
tracer in Pancreas (6 h): 1.67 percentage of the dose injected per gram of tissue
tracer in Pancreas (16 h): 1.92 percentage of the dose injected per gram of tissue
tracer in Pancreas (24 h): 1.31 percentage of the dose injected per gram of tissue
tracer in Pancreas (48 h): 0.99 percentage of the dose injected per gram of tissue
tracer in Pancreas (72 h): 1.12 percentage of the dose injected per gram of tissue
tracer in Salivary gland (2 h): 1.53 percentage of the dose injected per gram of tissue
tracer in Salivary gland (4 h): 1.26 percentage of the dose injected per gram of tissue
tracer in Salivary gland (6 h): 2.10 percentage of the dose injected per gram of tissue
tracer in Salivary gland (16 h): 2.68 percentage of the dose injected per gram of tissue
tracer in Salivary gland (24 h): 1.57 percentage of the dose injected per gram of tissue
tracer in Salivary gland (48 h): 2.07 percentage of the dose injected per gram of tissue
tracer in Salivary gland (72 h): 2.36 percentage of the dose injected per gram of tissue
tracer in Seminal gland (4 h): 0.50 percentage of the dose injected per gram of tissue
tracer in Seminal gland (6 h): 0.54 percentage of the dose injected per gram of tissue
tracer in Seminal gland (16 h): 0.64 percentage of the dose injected per gram of tissue
tracer in Seminal gland (24 h): 0.35 percentage of the dose injected per gram of tissue
tracer in Seminal gland (48 h): 0.35 percentage of the dose injected per gram of tissue
tracer in Seminal gland (72 h): 0.58 percentage of the dose injected per gram of tissue
tracer in Seminal glands (Seminal glands, 2 h): 0.79 percentage of the dose injected per gram of tissue
tracer in Spleen (2 h): 7.15 percentage of the dose injected per gram of tissue
tracer in Spleen (4 h): 5.31 percentage of the dose injected per gram of tissue
tracer in Spleen (6 h): 6.453 percentage of the dose injected per gram of tissue
tracer in Spleen (16 h): 9.19 percentage of the dose injected per gram of tissue
tracer in Spleen (24 h): 6.65 percentage of the dose injected per gram of tissue
tracer in Spleen (48 h): 11.18 percentage of the dose injected per gram of tissue
tracer in Spleen (72 h): 6.40 percentage of the dose injected per gram of tissue
tracer in Testicle (2 h): 1.36 percentage of the dose injected per gram of tissue
tracer in Testicle (4 h): 1.35 percentage of the dose injected per gram of tissue
tracer in Testicle (6 h): 2.000 percentage of the dose injected per gram of tissue
tracer in Testicle (16 h): 2.95 percentage of the dose injected per gram of tissue
tracer in Testicle (48 h): 2.97 percentage of the dose injected per gram of tissue
tracer in Testicle (72 h): 4.34 percentage of the dose injected per gram of tissue

From US9707305B2, “Formulas for diagnosing and treating hormone-dependent cancers and cancers of the organs responsible for steroid hormone synthesis” (Commissariat à l'énergie atomique et aux énergies …, priority 2011, dated 2017)
